Literature values, collected in patent publication US20220249345A1, “PRODUCT FOR TREATING KERATINOUS FIBERS, CONTAINING SILANES OF SPECIFIC FORMULAE” (Henkel AG & Co. KGaA, priority 2019, published 2022).
Like-named read-outs stand apart in the source and are kept apart here.

## Nc1cc(S(=O)(=O)[O-])cc2cc(S(=O)(=O)[O-])c(N=Nc3ccccc3)c(O)c12.[Na+].[Na+] [Acid Red 33, diantrium salt of 5-amino-4-hydroxy-3-(phenylazo)-naphthalene-2,7-disulphonate]
25° C.
  solubility in water: about 2.5 g/L

## O=C([O-])C1=NN(c2ccc(S(=O)(=O)[O-])cc2)C(=O)C1N=Nc1ccc(S(=O)(=O)[O-])cc1.[Na+].[Na+].[Na+] (stereo not drawn) [Acid Yellow 23, trisodium salt of 4,5-dihydro-5-oxo-1-(4-sulfophenyl)-4-((4-sulfophenyl)azo)-1H-pyrazole-3-carboxylic acid]
At about 25° C.
  solubility in water: highly soluble in water

## O=S(=O)([O-])c1ccc(N=Nc2c(O)ccc3ccccc23)cc1.[Na+] [Acid Orange 7, sodium salt of 4-[(2-hydroxy-1-naphthyl)azo]benzene sulphonate]
25° C.
  solubility in water: more than 7 g/L
